How the values were obtained:
[1] = tested on: A549 (human non-small-cell lung cancer); assay: MTT cytotoxicity assay, A549; format: cell-based; details: Homo sapiens, A549, 72 h treatment, read-out: Half Maximal Inhibitory Concentration (IC50) A549
Description: (§1) The cytotoxicity of hederagenin derivatives in vitro was evaluated on three tumor cell lines (A549: human non-small-cell lung cancer; MCF-7: human mammary cancer; HepG2: human hepatocellular carcinoma) using the 3-(4,5-dimethylthiazol-2-yl)-2,5-diphenyltetrazolium bromide (MTT) assay. In addition, their toxicity evaluations were tested on H9c2 (murine heart myoblast) and MDCK (Madin–Darby canine kidney) cells. MCF-7, A549, HepG2, H9c2, and MDCK cells were obtained from the Chinese Academy of Medical Sciences and Peking Union Medical College. All of the cell lines were maintained in Dulbecco’s modified Eagle medium (DMEM) supplemented with 1% (v/v) penicillin/streptomycin and 10% (v/v) fetal bovine serum (FBS; Thermo Technologies, New York, NY, USA) under a humidified atmosphere containing 5% CO2 at 37 °C. The stock solutions of He derivatives were dissolved in dimethyl sulfoxide (DMSO; Sigma, St. Louis, MO, USA) and added at various concentrations to the cell culture. Cellular morphologies were observed using an inverted fluorescence microscope (Olympus IX71, Tokyo, Japan), a plate reader (BIORAD 550 spectrophotometer, Bio-rad Life Science Development Ltd., Beijing, China), and a Canton 2 flow cytometer (BD, New York, NY, USA). The antitumor activity of these compounds were evaluated on MCF-7, A549, HepG2, MDCK, and H9c2 cell lines using the MTT assay. Cells at a density of 3 × 10^3 cells/well were plated in a 96-multiwell plate in DMEM containing 10% FBS for 24 h at 37 °C with 5% CO2. Then, cells were treated for 72 h with the required concentrations (3.125, 6.25, 12.5, 25, or 50 μM) of the compounds and reference drugs (He and DDP) dissolved with the vehicle DMSO. After that, the culture substrate was replaced with 200 μL of DMEM containing 20 μL of MTT solution at 5 mg/mL and incubated for 4 h. The supernatant was removed and the dissolved formazans precipitated with 120 μL of DMSO. Wells without drugs were used as blanks. A plate reader was used to determine the absorbance at 490 nm. The above steps were repeated three times. The IC50 values were defined as the concentration of the compound which gave 50% growth inhibition, and they were calculated using Graph Pad Prism 5. The inhibition rate was calculated using the following formula, where OD is the optical density:% inhibition = 1 − (Sample group OD/Control group OD) × 100%. (1)

[2] = tested on: MCF-7 (human mammary cancer); assay: MTT cytotoxicity assay, MCF-7; format: cell-based; details: Homo sapiens, MCF7, 72 h treatment, read-out: Half Maximal Inhibitory Concentration (IC50) MCF-7
Description: as §1

[3] = tested on: HepG2 (human hepatocellular carcinoma); assay: MTT cytotoxicity assay, HepG2; format: cell-based; details: for IC50: Homo sapiens, HepG2, MTT, 72 h treatment, read-out: Half Maximal Inhibitory Concentration (IC50) HepG2
Description: as §1

[4] = tested on: MDCK (Madin–Darby canine kidney) cells; assay: MTT toxicity evaluation, MDCK; format: cell-based; details: Canis lupus familiaris, MDCK, 72 h treatment, non-tumor cells, read-out: Half Maximal Inhibitory Concentration (IC50) MDCK
Description: as §1

[5] = tested on: H9c2 (murine heart myoblast); assay: MTT toxicity evaluation, H9c2; format: cell-based; details: H9c2, 72 h treatment, non-tumor cells, read-out: Half Maximal Inhibitory Concentration (IC50) H9c2
Description: as §1

Cc1ncc(C(=O)OCCOC(=O)[C@]23CCC(C)(C)CC2C2=CCC4[C@@]5(C)CC[C@H](O)[C@@](C)(CO)C5CC[C@@]4(C)[C@]2(C)CC3)nc1C (stereo partly drawn) [Compound 12, 2-(((4aS,6aS,6bR,9R,10S,12aR)-10-Hydroxy-9-(hydroxymethyl)-2,2,6a,6b,9,12a-hexamethyl-1,2,3,4,4a,5,6,6a,6b,7,8,8a,9,10,11,12,12a,12b,13,14b-icosahydropicene-4a-carbonyl)oxy)ethyl-5,6-dimethylpyrazine-2-carboxylate]
IC50 [1]: 10.1 ± 2.47 µM
IC50 [2]: 17.3 ± 0.58 µM
IC50 [3]: 14.42 ± 0.03 µM
IC50 [4]: 18.6 ± 0.71 µM
IC50 [5]: 13.2 ± 0.2 µM
melting point: 146.2 °C

Cc1nc(C)c(C(=O)OCCOC(=O)[C@]23CCC(C)(C)CC2C2=CCC4[C@@]5(C)CC[C@H](O)[C@@](C)(CO)C5CC[C@@]4(C)[C@]2(C)CC3)nc1C (stereo partly drawn) [Compound 13, 2-(((4aS,6aS,6bR,9R,10S,12aR)-10-Hydroxy-9-(hydroxymethyl)-2,2,6a,6b,9,12a-hexamethyl-1,2,3,4,4a,5,6,6a,6b,7,8,8a,9,10,11,12,12a,12b,13,14b-icosahydropicene-4a-carbonyl)oxy)ethyl-3,5,6-trimethylpyrazine-2-carboxylate]
IC50 [1]: 8.15 ± 0.17 µM
IC50 [2]: 18.03 ± 0.18 µM
IC50 [3]: 13.2 ± 0.29 µM
IC50 [4]: 23.22 ± 0.01 µM
IC50 [5]: 10.5 ± 0.61 µM
melting point: 150.6 °C

CC1(C)CC[C@]2(C(=O)OCCCCOC(=O)c3cnccn3)CC[C@]3(C)C(=CCC4[C@@]5(C)CC[C@H](O)[C@@](C)(CO)C5CC[C@]43C)C2C1 (stereo partly drawn) [Compound 14, 4-(((4aS,6aS,6bR,9R,10S,12aR)-10-Gydroxy-9-(hydroxymethyl)-2,2,6a,6b,9,12a-hexamethyl-1,2,3,4,4a,5,6,6a,6b,7,8,8a,9,10,11,12,12a,12b,13,14b-icosahydropicene-4a-carbonyl)oxy)butyl-pyrazine-2-carboxylate]
IC50 [1]: 17.6 ± 2.33 µM
IC50 [2]: 31.23 ± 0.15 µM
IC50 [3]: 7.05 ± 0.17 µM
selective inhibition (SI = IC50 MCF-7/IC50 HepG2) ([3]; ratio of IC50 MCF-7 to IC50 HepG2): 4.43
IC50 [4]: 18.1 ± 0.12 µM
IC50 [5]: 15.9 ± 0.22 µM
melting point: 127 °C

Cc1cncc(C(=O)OCCCCOC(=O)[C@]23CCC(C)(C)CC2C2=CCC4[C@@]5(C)CC[C@H](O)[C@@](C)(CO)C5CC[C@@]4(C)[C@]2(C)CC3)n1 (stereo partly drawn) [Compound 15, 4-(((4aS,6aS,6bR,9R,10S,12aR)-10-Hydroxy-9-(hydroxymethyl)-2,2,6a,6b,9,12a-hexamethyl-1,2,3,4,4a,5,6,6a,6b,7,8,8a,9,10,11,12,12a,12b,13,14b-icosahydropicene-4a-carbonyl)oxy)butyl-6-methylpyrazine-2-carboxylate]
IC50 [1]: 17.98 ± 0.04 µM
IC50 [2]: 19.8 ± 1.27 µM
IC50 [3]: 6.71 ± 0.2 µM
IC50 [4]: 17.1 ± 1.01 µM
IC50 [5]: 17.6 ± 1.85 µM
melting point: 128 °C

Cc1cnc(C(=O)OCCCCOC(=O)[C@]23CCC(C)(C)CC2C2=CCC4[C@@]5(C)CC[C@H](O)[C@@](C)(CO)C5CC[C@@]4(C)[C@]2(C)CC3)cn1 (stereo partly drawn) [Compound 16, 4-(((4aS,6aS,6bR,9R,10S,12aR)-10-Hydroxy-9-(hydroxymethyl)-2,2,6a,6b,9,12a-hexamethyl-1,2,3,4,4a,5,6,6a,6b,7,8,8a,9,10,11,12,12a,12b,13,14b-icosahydropicene-4a-carbonyl)oxy)butyl-5-methylpyrazine-2-carboxylate]
IC50 [1]: 24.8 ± 0.66 µM
IC50 [2]: 28.49 ± 0.28 µM
IC50 [3]: 6.99 ± 0.63 µM
IC50 [4]: 20.12 ± 0.06 µM
IC50 [5]: 14.99 ± 0.12 µM
melting point: 166.1 °C

Cc1nccnc1C(=O)OCCCCOC(=O)[C@]12CCC(C)(C)CC1C1=CCC3[C@@]4(C)CC[C@H](O)[C@@](C)(CO)C4CC[C@@]3(C)[C@]1(C)CC2 (stereo partly drawn) [Compound 17, 4-(((4aS,6aS,6bR,9R,10S,12aR)-10-Hydroxy-9-(hydroxymethyl)-2,2,6a,6b,9,12a-hexamethyl-1,2,3,4,4a,5,6,6a,6b,7,8,8a,9,10,11,12,12a,12b,13,14b-icosahydropicene-4a-carbonyl)oxy)butyl-3-methylpyrazine-2-carboxylate]
IC50 [1]: 19.6 ± 0.22 µM
IC50 [2]: 22.9 ± 0.66 µM
IC50 [3]: 8.15 ± 0.22 µM
IC50 [4]: 20.9 ± 3.03 µM
IC50 [5]: 22.3 ± 0.3 µM
melting point: 145.2 °C

Cc1ncc(C(=O)OCCCCOC(=O)[C@]23CCC(C)(C)CC2C2=CCC4[C@@]5(C)CC[C@H](O)[C@@](C)(CO)C5CC[C@@]4(C)[C@]2(C)CC3)nc1C (stereo partly drawn) [Compound 18, 4-(((4aS,6aS,6bR,9R,10S,12aR)-10-Hydroxy-9-(hydroxymethyl)-2,2,6a,6b,9,12a-hexamethyl-1,2,3,4,4a,5,6,6a,6b,7,8,8a,9,10,11,12,12a,12b,13,14b-icosahydropicene-4a-carbonyl)oxy)butyl-5,6-dimethylpyrazine-2-carboxylate]
IC50 [1]: 16.17 ± 0.15 µM
IC50 [2]: 28.3 ± 0.41 µM
IC50 [3]: 11.9 ± 0.99 µM
IC50 [4]: 16.6 ± 0.22 µM
IC50 [5]: > 30 µM
melting point: 134.7 °C

Cc1nc(C)c(C(=O)OCCCCOC(=O)[C@]23CCC(C)(C)CC2C2=CCC4[C@@]5(C)CC[C@H](O)[C@@](C)(CO)C5CC[C@@]4(C)[C@]2(C)CC3)nc1C (stereo partly drawn) [Compound 19, 4-(((4aS,6aS,6bR,9R,10S,12aR)-10-Hydroxy-9-(hydroxymethyl)-2,2,6a,6b,9,12a-hexamethyl-1,2,3,4,4a,5,6,6a,6b,7,8,8a,9,10,11,12,12a,12b,13,14b-icosahydropicene-4a-carbonyl)oxy)butyl-3,5,6-trimethylpyrazine-2-carboxylate]
IC50 [1]: 12.2 ± 0.4 µM
IC50 [2]: 27.6 ± 0.52 µM
IC50 [3]: 9.06 ± 0.32 µM
IC50 [4]: 16.43 ± 0.04 µM
IC50 [5]: 16.5 ± 0.22 µM
melting point: 110.1 °C

CC1(C)CC[C@]2(C(=O)OCCCCCl)CC[C@]3(C)C(=CCC4[C@@]5(C)CC[C@H](O)[C@@](C)(COC(=O)c6cnccn6)C5CC[C@]43C)C2C1 (stereo partly drawn) [Compound 21, ((3S,4R,6aR,6bS,8aS,14bR)-8a-((4-Chlorobutoxy)carbonyl)-3-hydroxy-4,6a,6b,11,11,14b-hexamethyl-1,2,3,4,4a,5,6,6a,6b,7,8,8a,9,10,11,12,12a,14,14a,14b-icosahydropicen-4-yl)methyl-pyrazine-2-carboxylate]
IC50 [1]: 9.29 ± 0.99 µM
IC50 [2]: 24.98 ± 0.18 µM
IC50 [3]: 7.99 ± 0.12 µM
IC50 [4]: 14.85 ± 0.06 µM
IC50 [5]: 16.68 ± 0.1 µM
melting point: 117.1 °C

Cc1cncc(C(=O)OC[C@@]2(C)C3CC[C@]4(C)C(CC=C5C6CC(C)(C)CC[C@]6(C(=O)OCCCCCl)CC[C@]54C)[C@@]3(C)CC[C@@H]2O)n1 (stereo partly drawn) [Compound 22, ((3S,4R,6aR,6bS,8aS,14bR)-8a-((4-Chlorobutoxy)carbonyl)-3-hydroxy-4,6a,6b,11,11,14b-hexamethyl-1,2,3,4,4a,5,6,6a,6b,7,8,8a,9,10,11,12,12a,14,14a,14b-icosahydropicen-4-yl)methyl 6-methylpyrazine-2-carboxylate]
IC50 [1]: 10.4 ± 0.43 µM
IC50 [2]: 20.5 ± 3.63 µM
IC50 [3]: 7.15 ± 0.43 µM
IC50 [4]: 16.3 ± 1.57 µM
IC50 [5]: 16.26 ± 0.07 µM
melting point: 126.9 °C

Cc1cnc(C(=O)OC[C@@]2(C)C3CC[C@]4(C)C(CC=C5C6CC(C)(C)CC[C@]6(C(=O)OCCCCCl)CC[C@]54C)[C@@]3(C)CC[C@@H]2O)cn1 (stereo partly drawn) [Compound 23, ((3S,4R,6aR,6bS,8aS,14bR)-8a-((4-Chlorobutoxy)carbonyl)-3-hydroxy-4,6a,6b,11,11,14b-hexamethyl-1,2,3,4,4a,5,6,6a,6b,7,8,8a,9,10,11,12,12a,14,14a,14b-icosahydropicen-4-yl)methyl 5-methylpyrazine-2-carboxylate]
IC50 [1]: 18.7 ± 0.32 µM
IC50 [2]: 21.3 ± 1.28 µM
IC50 [3]: 7.17 ± 1.09 µM
IC50 [4]: 19.5 ± 2.47 µM
IC50 [5]: 23.4 ± 0.55 µM
melting point: 175.8 °C

Cc1nccnc1C(=O)OC[C@@]1(C)C2CC[C@]3(C)C(CC=C4C5CC(C)(C)CC[C@]5(C(=O)OCCCCCl)CC[C@]43C)[C@@]2(C)CC[C@@H]1O (stereo partly drawn) [Compound 24, ((3S,4R,6aR,6bS,8aS,14bR)-8a-((4-Chlorobutoxy)carbonyl)-3-hydroxy-4,6a,6b,11,11,14b-hexamethyl-1,2,3,4,4a,5,6,6a,6b,7,8,8a,9,10,11,12,12a,14,14a,14b-icosahydropicen-4-yl)methyl 3-methylpyrazine-2-carboxylate]
IC50 [1]: 22 ± 0.87 µM
IC50 [2]: 17.9 ± 2.8 µM
IC50 [3]: 6.89 ± 0.21 µM
IC50 [4]: 19.3 ± 1.47 µM
IC50 [5]: 27.9 ± 0.62 µM
melting point: 106.1 °C
